Among the data in PMC8719060, “Characterization of a Novel Chromosome-Encoded AmpC β-Lactamase Gene, blaPRC–1, in an Isolate of a Newly Classified Pseudomonas Species, Pseudomonas wenzhouensis A20, From Animal Farm Sewage” (Frontiers in Microbiology, 2021) are IC50 values, retold here.

In this test the target is PRC-1 (Pseudomonas wenzhouensis, UniProt Z9ZEF5EQX5). Description: nitrocefin hydrolysis inhibition, spectrophotometry. The class given is biochemical. To be noted: 100 μM nitrocefin, 5 min preincubation, 37°C; covalent.
Sequence of PRC-1 (Z9ZEF5EQX5 23-379 limits assumed): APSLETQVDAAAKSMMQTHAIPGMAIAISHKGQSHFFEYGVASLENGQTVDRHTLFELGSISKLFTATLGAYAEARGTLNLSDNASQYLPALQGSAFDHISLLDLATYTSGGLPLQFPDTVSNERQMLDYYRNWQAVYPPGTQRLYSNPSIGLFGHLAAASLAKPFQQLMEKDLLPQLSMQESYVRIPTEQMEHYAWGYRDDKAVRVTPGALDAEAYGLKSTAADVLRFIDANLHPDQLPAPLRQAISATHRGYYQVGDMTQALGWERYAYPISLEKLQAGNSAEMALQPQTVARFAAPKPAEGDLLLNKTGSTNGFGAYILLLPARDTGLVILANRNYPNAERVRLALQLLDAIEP

`NC(=O)[C@@H]1CC[C@@H]2CN1C(=O)N2OS(=O)(=O)O` [avibactam]: the IC50 is 0.000392 µM.

For the compound `O=C(O)[C@H]1/C(=C/CO)O[C@@H]2CC(=O)N21` [clavulanic acid], the IC50 turned out to be 23.4 µM.

As usually defined, the IC50 is the midpoint of a concentration-inhibition curve.
